Laboratory results published in US20180078529A1, “ANGIOTENSIN II RECEPTOR AGONIST FOR TREATING PULMONARY FIBROSIS” (VICORE PHARMA AB, priority 2015, published 2018).

Tested on: Patients have a diagnosis of Idiopathic Pulmonary Fibrosis, IPF
Experiment: Treatment of patients with Idiopathic Pulmonary Fibrosis with C21 (Examples 1 and 2)
Format: in vivo, human
Settings: a few weeks after starting treatment
Description: Patients have a diagnosis of Idiopathic Pulmonary Fibrosis, IPF, who generally are above the age of 60 years, often with concomitant diseases, like ischemic heart disease, diabetes etc. Patients may either be treated for IPF with currently established drugs, e.g. pirfenidone and/or nintedanib or treatment-naïve. Each patient receives a compound of the invention, C21, in a dose range between 0.3 mg and 100 mg daily that is administered once or several times daily. Control groups are administered placebo, or one or more currently established therapies, e.g. pirfenidone and/or nintedanib. The compound, C21, is in a formulation hat can be administered to the patient orally, via inhalation, intravenously or as a combination of more than one route of administration for the treatment of IPF. The treatment is evaluated through efficacy variables such as objective measurements of improved lung capacity/cardiac function and subjective symptoms and quality of life—both at visits to doctors' office and in the patient's home or work environment. Beneficial effects are recorded and followed after one to several months' treatment with the compound, C21, vs placebo or vs currently established therapy(-ies), e.g. pirfenidone and/or nintedanib.
Patients have a diagnosis of Idiopathic Pulmonary Fibrosis, IPF, and are treated according to EXAMPLE 1. […] Furthermore, cardiac function tests, e.g. echo or MRI, may indicate improvements in the underlying lung disease resulting in improved cardiac performance. Benefits may also be seen as an improvement in progression-free survival, where the number of deaths is analyzed together with the number of patients presenting with pre-defined marked reduction of FVC and/or exercise capacity. Benefits can be either self-reported or objectively recorded. Improvements in symptoms may include less dyspnea, less cough, less fatigue, increased exercise capacity and improved quality of life. Improvements may be seen in treatment-naïve patients as well as in those already on treatment with established therapies for IPF.

## CCCCOC(=O)NS(=O)(=O)c1sc(CC(C)C)cc1-c1ccc(Cn2ccnc2)cc1 [Compound C21, N-Butyloxycarbonyl-3-(4-imidazol-1-ylmethylphenyl)-5-iso-butylthiophene-2-sulfonamide]
  dyspnea and cough (patient-reported): slight improvement
Patient with IPF
  exercise capacity: without any deterioration
Patient with IPF, C21 0.3 mg to 100 mg daily
  biomarkers that are relevant for the progression of the disease (blood tests): improvement in biomarkers
